According to patent publication US5861388A, “Steroid inhibitors of estrone sulfatase and associated pharmaceutical compositions and methods of use” (SRI International, priority 1997, dated 1999):

How the values were obtained:
[1] = target: T1, estrone sulfatase (Homo sapiens, UniProt P08842); assay: Estrone sulfatase assay with intact MCF-7 cells; type: cell-based; conditions: concentration giving 50 % inhibition, 24 h, 3H-estrone sulfate substrate
T1 construct: Estrone Sulfatase Assay with Intact Cells; host or cells: MCF-7
T1 sequence (P08842 22-583): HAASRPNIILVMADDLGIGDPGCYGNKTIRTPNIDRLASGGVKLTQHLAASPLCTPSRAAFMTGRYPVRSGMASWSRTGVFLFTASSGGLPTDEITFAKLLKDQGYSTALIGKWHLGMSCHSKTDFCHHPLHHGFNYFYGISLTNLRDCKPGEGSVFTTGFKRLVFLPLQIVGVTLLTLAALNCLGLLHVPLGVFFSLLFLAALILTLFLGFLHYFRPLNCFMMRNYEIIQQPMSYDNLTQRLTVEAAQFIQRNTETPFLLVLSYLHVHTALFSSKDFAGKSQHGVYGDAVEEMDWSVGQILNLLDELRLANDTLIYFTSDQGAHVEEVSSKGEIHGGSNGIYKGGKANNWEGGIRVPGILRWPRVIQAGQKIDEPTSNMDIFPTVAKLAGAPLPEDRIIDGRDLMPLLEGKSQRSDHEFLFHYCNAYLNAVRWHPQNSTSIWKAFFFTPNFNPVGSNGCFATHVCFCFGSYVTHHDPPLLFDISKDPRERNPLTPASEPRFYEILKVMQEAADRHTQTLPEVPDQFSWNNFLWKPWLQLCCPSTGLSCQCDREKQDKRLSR
Description: Test for the Effects of Inhibitors on Estrone Sulfatase Activity in MCF-7 Cells:
Reagents: MCF-7 human breast cancer cells were supplied by the American Type Culture Collection, Rockville, Md. Eagle's minimum essential medium (MEM) and fetal calf serum (FCS) were purchased from Sigma Chemical Company, St. Louis, Mo. [4-^14 C] Estrone, [6,7-^3 H] estradiol and [6,7-^3 H(N)] estrone sulfate were obtained from New England Nuclear Research Products, Boston, Mass.
Estrone Sulfatase Assay with Intact Cells. The procedure of Duncan et al., Cancer Res. 53:298-303 (1993) was followed. MCF-7 cells were seeded in 60×15 mm culture dishes at 1×10^5 cells/dish and maintained in 4.0 mL of MEM containing 2 mM of glutamine and 5% of FCS. The cells were incubated at 37° C. in a 5% CO2 /95% air atmosphere and 100% humidity, with the medium changed every third day. When the cells reach 80% confluency, the intact monolayers were washed once with Earl's balanced salt solution and incubated in 4.0 mL of serum-free MEM containing the substrate (^3 H-estrone sulfate, 7 pmol, 9×10^5 dpm) and inhibitor dissolved in ethanol or ethanol alone. The final ethanol concentration was always be below 1%. The incubation continued for 24 h. 2.0 mL of medium was transferred into separate tubes containing 7×10^3 dpm of ^14 C-estrone. The mixture was vortexed vigorously for 60 s with 5 mL of toluene. After phase separation, 2.0 mL of the organic phase was transferred into a counting vial for scintillation counting. The amount of estrone sulfate hydrolyzed was calculated on the basis of the ^3 H counts obtained, with the added ^14 C-estrone used to correct for recovery through the extraction procedure.
The cells remaining in each culture dish were washed with saline once and then scraped with 1.0 mL of 0.5N NaOH into 10×75 mm tubes. The cell pellets in each tube were incubated at 50° C. for 20 min. to ensure that digestion was complete and that all proteins became soluble. An aliquot was then taken for protein determination by Lowry's method (Lowry et al., J. Biol. Chem. 193:265-275 (1951)).
The amount of estrone sulfate hydrolyzed with the inhibitor relative to that without the inhibitor was evaluated to give the percentage of inhibition.

[2] = tested on: MCF-7 human breast carcinoma xenografts; assay: Tumor growth inhibition assay, MCF-7 human breast carcinoma xenografts in athymic mice; type: in vivo, human MCF-7 xenografts in female BALB/c athymic mice; conditions: i.p. 1.0 mg/mouse/day for 5 weeks, mean ± S.E.
Description: In Vivo Efficacy Studies Using MCF-7 Cells in Nude Mice: For in vivo evaluation, human xenografts were used in nude (athymic) mice, in the context of a solid tumor assay. MCF-7 human breast carcinomas in nude mice were used as the model for evaluating the estrone sulfatase inhibitors. The protocol followed was essentially that of Yue et al., J. Steroid Biochem. 44:671-673 (1993). Because MCF-7 cells are known to require supplementation with estradiol to sustain progressive growth in athymic nude mice (Soule et al., Cancer Lett. 10:177-189 (1980)), estrone sulfate was used for supplemental estrogen in the model studies. The enzyme inhibitors were administered by intravenous injection, oral gavage, and intraperitoneal administration, and comparative efficacy of the various compounds were evaluated using these different routes. Female BALB/c athymic mice 4-6 weeks of age were supplied by Charles River Breeding Laboratories, Boston, Mass. MCF-7 cells for the in vitro cell growth inhibition assay were obtained from the American Type Culture Collection, Rockville, Md., and cultured under the same conditions as described above for the sulfatase assay. Tumor Growth Inhibition Assay (see […] et al. (1990), supra, Yue et al., supra, and Noel et al., Biochem. Pharmacol. 43:1263-1267 (1992): The athymic mice were housed five per cage in controlled conditions of light and humidity and received food and water ad libitum throughout the entire experiment. The mice were quarantined for three working days before use in experiments. Prior to the initiation of the antitumor experiments, the mice were housed for seven days to familiarize them with the experimental environment. Temperature was maintained at 72±5° F., with relative humidity at 35-70% and a 12-h light/dark cycle. The mice were fed certified Purina rodent chow and drinking water ad libitum. The source water was recirculated, deionized, UV-treated, and filtered (5-μm filter). At the beginning of the experiment, all but five of the mice underwent oophorectomies to eliminate the endogenous level of estrogen. After all animals recovered from surgery, all mice in the study received 5 μmol of estrone sulfate daily via gavage or subcutaneous (sc) injection. The dosing of estrone sulfate was carried out throughout the entire experiment. Seven days after the animals began treatment with estrone sulfate, each mouse was be injected sc twice (once in each flank) with 2.5×10^6 MCF-7 cells suspended in 0.1 mL of serum-free tissue culture medium to induce tumor growth. The growth rate was determined by measuring the tumors with calipers weekly. Tumor volumes were calculated according to the formula 4/3πr1^2,r2, where r1 and r2 represent the tumor radii. When the average tumor volume per mouse reached approximately 200 mm^3, animals began to receive various doses of estrone sulfatase inhibitors dissolved in 0.1 mL of phosphate buffered saline (PBS). Dosing was by oral gavage, intravenous injection, and intraperitoneal injection; daily dosing with estrone sulfatase inhibitors was continued throughout the remainder of the experiment. The estrone sulfatase inhibitors not soluble in aqueous solutions were dissolved in EtOH first and diluted with PBS to obtain the appropriate concentrations of inhibitor but keeping the concentration of EtOH below 1%. For each test compound, the mice were divided into several groups with five animals in each group. These groups were as follows: intact control group receiving PBS alone; oophorectomized control group receiving PBS alone; and oophorectomized treatment groups receiving various doses of estrone sulfatase inhibitors. […] The change in tumor volume in the treatment groups relative to that in the oophorectomized control group gave the percent inhibition of a given inhibitor.

| SMILES | IC50 [1] [nM] | further results |
| --- | --- | --- |
| C[C@H]1CC[C@H]2[C@@H]3CCc4cc5c(cc4[C@H]3CC[C@]12C)C=NS(=O)(=O)O5 [Compound 34, 17β-methylestra-1,3,5(10)-trieno-[3,2,e]-1',2',3'-oxathiazine-2',2'-dioxide] | 45 | – |
| C[C@]12CC[C@@H]3c4ccc5c(c4CC[C@H]3[C@@H]1CCC2=O)C=NS(=O)(=O)O5 [Compound 13, estra-1,3,5(10)-trien-17-ono-[3,4,e]-1',2',3'-oxathiazine-2',2'-dioxide] | 44 | – |
| C[C@]12CC[C@@H]3c4cc5c(cc4CC[C@H]3[C@@H]1CC[C@@H]2O)OS(=O)(=O)NC5 [Compound 11, 17β-Hydroxyestra-1,3,5(10)-trieno-[3,2,e]-3',4'-dihydro-1',2',3'-oxathiazine-2',2'-dioxide] | 820 | – |
| C=C=C1CC[C@H]2[C@@H]3CCc4cc5c(cc4[C@H]3CC[C@]12C)C=NS(=O)(=O)O5 [Compound 40, 19-Norpregna-1,3,5(10),17(20),20-pentaeno-[3,2,e]-1',2',3'-oxathiazine-2',2'-dioxide] | 74 | – |
| CCC[C@H]1CC[C@H]2[C@@H]3CCc4cc5c(cc4[C@H]3CC[C@]12C)C=NS(=O)(=O)O5 [Compound 35, 17β-Propylestra-1,3,5(10)-trieno-[3,2,e]-1',2',3'-oxathiazine-2',2'-dioxide] | 120 | – |
| CC(=O)O[C@H]1CC[C@H]2[C@@H]3CCc4cc5c(cc4[C@H]3CC[C@]12C)C=NS(=O)(=O)O5 [Compound 4, 17β-acetoxyestra-1,3,5(10)-trieno-[3,2,e]-1',2',3'-oxathiazine-2',2'-dioxide] | 12 | – |
| CCC/C=C1/CC[C@H]2[C@@H]3CCc4cc5c(cc4[C@H]3CC[C@]12C)C=NS(=O)(=O)O5 [Compound 33, [17(20)Z]-19,21-dinorchola-1,3,5(10),17(20)-tetraeno-[3,2,e]-1',2',3'-oxathiazine-2',2'-dioxide] | 720 | – |
| C[C@]12CC[C@@H]3c4cc5c(cc4CC[C@H]3[C@@H]1CC[C@@H]2O)OS(=O)(=O)N=C5 [Compound 10, 17β-hydroxyestra-1,3,5(10)-trieno-[3,2,e]-1',2',3'-oxathiazine-2',2'-dioxide] | 20 | – |
| CC[C@H]1CC[C@H]2[C@@H]3CCc4cc5c(cc4[C@H]3CC[C@]12C)C=NS(=O)(=O)O5 [Compound 17, 19-norpregna-1,3,5(10)-trieno-[3,2,e]-1',2',3'-oxathiazine-2',2'-dioxide] | 50 | – |
| C/C=C1/CC[C@H]2[C@@H]3CCc4cc5c(cc4[C@H]3CC[C@]12C)C=NS(=O)(=O)O5 [Compound 31, [17(20)Z]-norpregna-1,3,5(10),17(20)-tetraeno-[3,2,e]-1',2',3'-oxathiazine-2',2'-dioxide] | 63 | – |
| CC/C=C1/CC[C@H]2[C@@H]3CCc4cc5c(cc4[C@H]3CC[C@]12C)C=NS(=O)(=O)O5 [Compound 32, [17(20)Z]-Propylideneestra-1,3,5(10)-trieno-[3,2,e]-1',2',3'-oxathiazine-2',2'-dioxide] | 58 | – |
| CO[C@H]1CC[C@H]2[C@@H]3CCc4cc5c(cc4[C@H]3CC[C@]12C)C=NS(=O)(=O)O5 [Compound 43, 17β-methoxyestra-1,3,5(10)-trieno-[3,2,e]-1',2',3'-oxathiazine-2',2'-dioxide] | 50 | – |
| CCCC[C@H]1CC[C@H]2[C@@H]3CCc4cc5c(cc4[C@H]3CC[C@]12C)C=NS(=O)(=O)O5 [Compound 36, 17β-19,21-dinorchola-1,3,5(10)-trieno-[3,2,e]-1',2',3'-oxathiazine-2',2'-dioxide] | 590 | – |
| C[C@]12CC[C@@H]3c4cc5c(cc4CC[C@H]3[C@@H]1CCC2=O)OS(=O)(=O)N=C5 [Compound 6, Estra-1,3,5(10)-trien-17-ono-[3,2,e]-1',2',3'-oxathiazine-2',2'-dioxide] | 9.3 | Tumor Volume, week 0 ([2]; week 0, control 96.5 ± 5.2): 133.6 ± 15.9 mm^3; Tumor Volume, week 1 ([2]; week 1, control 184.1 ± 26.3): 185.8 ± 16.5 mm^3; Tumor Volume, week 2 ([2]; week 2, control 191.2 ± 36.1): 191.3 ± 25.1 mm^3; Tumor Volume, week 3 ([2]; week 3, control 232.9 ± 46.4): 181.8 ± 27.8 mm^3; Tumor Volume, week 4 ([2]; week 4, control 299.5 ± 54.3): 234.0 ± 50.7 mm^3; Tumor Volume, week 5 ([2]; week 5, control 349.0 ± 46.2): 285.8 ± 47.7 mm^3 |
| C=C1CC[C@H]2[C@@H]3CCc4cc5c(cc4[C@H]3CC[C@]12C)C=NS(=O)(=O)O5 [Compound 30, 17-methyleneestra-1,3,5(10)-trieno-[3,2,e]-1',2',3'-oxathiazine-2',2'-dioxide] | 72 | – |
| C[C@]12CC[C@@H]3c4ccc5c(c4CC[C@H]3[C@@H]1CC[C@@H]2O)CNS(=O)(=O)O5 [Compound 14, 17β-Hydroxyestra-1,3,5(10)-trieno-[3,4,e]-3',4'-dihydro-1',2',3'-oxathiazine-2',2'-dioxide] | 15000 | – |
